Data published in ChEMBL document CHEMBL1150095, “Antitumor activity and stereochemistry of acetylenic alcohols from the sponge Cribrochalina vasculum” (1995).

Tests used:
Type in all cases: functional
A549 = assay: Antitumor activity against human A549 cells
SF-539 = assay: Antitumor activity against human SF539 cells
SR = assay: Antitumor activity against human SR cells
U-251 = assay: Antitumor activity against human U251 cells
NCI-H226 = assay: Antitumor activity against human NCI-H226 cells
M14 = assay: Antitumor activity against human M14 cells
HOP-62 = assay: Antitumor activity against human HOP62 cells
NCI-H322M = assay: Antitumor activity against human NCI-H322M cells
UACC-257 = assay: Antitumor activity against human UACC257 cells
786-0 = assay: Antitumor activity against human 786-0 cells
HOP-92 = assay: Antitumor activity against human HOP92 cells
CAKI-1 = assay: Antitumor activity against human Caki1 cells
KM12 = assay: Antitumor activity against human KM12 cells
UO-31 = assay: Antitumor activity against human UO31 cells
SNB-19 = assay: Antitumor activity against human SNB19 cells
COLO 205 = assay: Antitumor activity against human COLO205 cells
HCC 2998 = assay: Antitumor activity against human HCC2998 cells
HCT-116 = assay: Antitumor activity against human HCT116 cells
[1] = Antitumor activity against human MCF7/ADR cells; settings: NCI/ADR-RES
MCF7 = assay: Antitumor activity against human MCF7 cells
NCI-H460 = assay: Antitumor activity against human NCI-H460 cells
SK-OV-3 = assay: Antitumor activity against human SKOV3 cells
EKVX = assay: Antitumor activity against human EKVX cells
IGROV-1 = assay: Antitumor activity against human IGROV1 cells
OVCAR-8 = assay: Antitumor activity against human OVCAR8 cells
HCT-15 = assay: Antitumor activity against human HCT15 cells
OVCAR-5 = assay: Antitumor activity against human OVCAR5 cells
OVCAR-4 = assay: Antitumor activity against human OVCAR4 cells
[2] = Antitumor activity against human […] cells
SK-MEL-2 = assay: Antitumor activity against human SK-MEL-2 cells
[3] = read-out: pLC50 (the source's name) (converted)

C#C[C@@H](O)/C=C/CCCCCCCCC/C=C\CCCCCC
GI50 (A549): 45.7 nM | CC50 (A549; [3]): 148 nM | TGI (A549; read-out: pTGI (converted)): 83.2 nM | GI50 (SF-539): 44.7 nM | CC50 (SF-539; [3]): 141 nM | TGI (SF-539; read-out: pTGI (converted)): 79.4 nM | GI50 (SR): 15.5 nM | CC50 (SR; [3]): 174 nM | TGI (SR; read-out: pTGI (converted)): 55 nM | GI50 (U-251): 40.7 nM | CC50 (U-251; [3]): 138 nM | TGI (U-251; read-out: pTGI (converted)): 74.1 nM | GI50 (NCI-H226): 30.2 nM | CC50 (NCI-H226; [3]): 129 nM | TGI (NCI-H226; read-out: pTGI (converted)): 61.7 nM | GI50 (M14): 8.32 nM | CC50 (M14; [3]): 100 nM | TGI (M14; read-out: pTGI (converted)): 39.8 nM | GI50 (HOP-62): 52.5 nM | CC50 (HOP-62; [3]): 151 nM | TGI (HOP-62; read-out: pTGI (converted)): 89.1 nM | GI50 (NCI-H322M): 53.7 nM | CC50 (NCI-H322M; [3]): 151 nM | TGI (NCI-H322M; read-out: pTGI (converted)): 91.2 nM | GI50 (UACC-257): 32.4 nM | CC50 (UACC-257; [3]): 126 nM | TGI (UACC-257; read-out: pTGI (converted)): 64.6 nM | GI50 (786-0): 42.7 nM | CC50 (786-0; [3]): 138 nM | TGI (786-0; read-out: pTGI (converted)): 77.6 nM | GI50 (HOP-92): 46.8 nM | CC50 (HOP-92; [3]): 145 nM | TGI (HOP-92; read-out: pTGI (converted)): 83.2 nM | GI50 (CAKI-1): 52.5 nM | CC50 (CAKI-1; [3]): 162 nM | TGI (CAKI-1; read-out: pTGI (converted)): 91.2 nM | GI50 (KM12): 37.1 nM | CC50 (KM12; [3]): 132 nM | TGI (KM12; read-out: pTGI): 70.8 nM | GI50 (UO-31): 52.5 nM | CC50 (UO-31; [3]): 151 nM | TGI (UO-31; read-out: pTGI (converted)): 89.1 nM | GI50 (SNB-19): 52.5 nM | CC50 (SNB-19; [3]): 151 nM | TGI (SNB-19; read-out: pTGI (converted)): 89.1 nM | GI50 (COLO 205): 43.6 nM | CC50 (COLO 205; [3]): 141 nM | TGI (COLO 205; read-out: pTGI (converted)): 79.4 nM | GI50 (HCC 2998): 43.6 nM | CC50 (HCC 2998; [3]): 141 nM | TGI (HCC 2998; read-out: pTGI (converted)): 79.4 nM | GI50 (HCT-116): 25.1 nM | CC50 (HCT-116; [3]): 117 nM | TGI (HCT-116; read-out: pTGI (converted)): 55 nM | GI50 [1]: 38 nM | CC50 [1, 3]: 138 nM | TGI ([1]; read-out: pTGI (converted)): 72.4 nM | GI50 (MCF7): 13.8 nM | CC50 (MCF7; [3]): 123 nM | TGI (MCF7; read-out: pTGI (converted)): 47.9 nM | GI50 (NCI-H460): 42.7 nM | CC50 (NCI-H460; [3]): 151 nM | TGI (NCI-H460; read-out: pTGI (converted)): 79.4 nM | GI50 (SK-OV-3): 61.7 nM | CC50 (SK-OV-3; [3]): 158 nM | TGI (SK-OV-3; read-out: pTGI (converted)): 100 nM | GI50 (EKVX): 46.8 nM | CC50 (EKVX; [3]): 145 nM | TGI (EKVX; read-out: pTGI (converted)): 81.3 nM | GI50 (IGROV-1): 0.562 nM | CC50 (IGROV-1; [3]): 2.19 nM | TGI (IGROV-1; read-out: pTGI (converted)): 1.12 nM | GI50 (OVCAR-8): 37.1 nM | CC50 (OVCAR-8; [3]): 132 nM | TGI (OVCAR-8; read-out: pTGI): 70.8 nM | GI50 (HCT-15): 36.3 nM | CC50 (HCT-15; [3]): 132 nM | TGI (HCT-15; read-out: pTGI (converted)): 69.2 nM | GI50 (OVCAR-5): 46.8 nM | CC50 (OVCAR-5; [3]): 145 nM | TGI (OVCAR-5; read-out: pTGI (converted)): 81.3 nM | GI50 (OVCAR-4): 18.6 nM | CC50 (OVCAR-4; [3]): 112 nM | TGI (OVCAR-4; read-out: pTGI (converted)): 51.3 nM | GI50 [2]: 6.76 nM | CC50 [2, 3]: 129 nM | TGI ([2]; read-out: pTGI (converted)): 18.6 nM | GI50 (SK-MEL-2): 8.13 nM
